# Target: T1, adenosine A2A receptor (A2AR) (Rattus norvegicus, UniProt P30543)
# T1 construct: gene Adora2a; native full-length receptor in striatum membrane preparation of adult male Wistar rats
# Experiment: [3H]-ZM241385 competition, rat striatum membranes
# Format: binding
# Details: 50 mM MgCl2 (medium I), 0.5 nM [3H]-ZM241385, pH 7.4, 25 °C, 60 min; parentheses = 95% CI
# From the text: [3H]-ZM241385 competition, rat striatum membranes on adenosine A2A receptor (A2AR)
# T1 sequence (P30543 whole entry): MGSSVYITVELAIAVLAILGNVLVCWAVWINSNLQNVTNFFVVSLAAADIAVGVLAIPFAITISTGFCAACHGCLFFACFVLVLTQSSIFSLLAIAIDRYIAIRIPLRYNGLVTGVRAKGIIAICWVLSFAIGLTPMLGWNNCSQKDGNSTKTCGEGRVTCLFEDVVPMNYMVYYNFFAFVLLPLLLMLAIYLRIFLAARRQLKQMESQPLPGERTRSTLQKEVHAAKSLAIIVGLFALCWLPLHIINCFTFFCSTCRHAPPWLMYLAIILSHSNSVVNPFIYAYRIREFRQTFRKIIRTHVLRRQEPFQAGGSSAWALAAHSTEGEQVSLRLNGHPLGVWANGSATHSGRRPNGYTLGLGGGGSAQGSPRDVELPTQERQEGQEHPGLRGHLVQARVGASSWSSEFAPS
row,IC50,SMILES
1,38.9 µM,"O=C(N/N=C/c1cccs1)c1ccc2c(c1)OCO2 [compound 1, LASSBio-294]"
2,47.9 µM,"CN(/N=C/c1cccs1)C(=O)c1ccc2c(c1)OCO2 [compound 2, LASSBio-785]"
3,20.9 µM,"O=C(N/N=C/c1ccc[se]1)c1ccc2c(c1)OCO2 [compound 3, N’-(Selenophen-2-yl-methylene)benzo[d][1,3] dioxole-5-carbohydrazide]"
4,10.8 µM,"COc1cccc(C(=O)N/N=C/c2cccs2)c1 [compound 4, 3-Methoxy-N’-(thiophen-2-yl-methylene)benzohydrazide]"
5,10.4 µM,"COc1cccc(C(=O)N/N=C/c2ccc[se]2)c1 [compound 5, 3-Methoxy-N’-(selenophen-2-yl-methylene)benzohydrazide]"
6,52.9 µM,"CN(/N=C/c1ccc[se]1)C(=O)c1ccc2c(c1)OCO2 [compound 6, N-Methyl-N’-(selenophen-2-yl-methylene) benzo[d][1,3]dioxole-5-carbohydrazide]"
7,22.3 µM,"COc1cccc(C(=O)N(C)/N=C/c2cccs2)c1 [compound 7, 3-Methoxy-N-methyl-N’-(thiophen-2-yl-methylene)benzohydrazide]"
8,15.4 µM,"COc1cccc(C(=O)N(C)/N=C/c2ccc[se]2)c1 [compound 8, LASSBio-2199]"
9,27.1 µM,"COc1cccc(C=NNC(=O)c2cccs2)c1 [compound 13, N’-(3-Methoxybenzylidene)thiophene-2-carbo-hydrazide]"
10,16.6 µM,"COc1cccc(C=NNC(=O)c2ccc[se]2)c1 [compound 14, N’-(3-Methoxybenzylidene)selenophene-2-ca-rbohydrazide]"

# From PMC8659164, “Effect of S–Se Bioisosteric Exchange on Affinity and Intrinsic Efficacy of Novel N-acylhydrazone Derivatives at the Adenosine A2A Receptor” (Molecules, 2021)
